2 molecules from US7598397B2, “Sulfonamide peri-substituted bicyclics for occlusive artery disease” (deCODE genetics ehf, priority 2004, dated 2009) can be followed below.

Structures are written as SMILES. Like-named read-outs stand apart in the source and are kept apart here.

The subject of test [1] is human platelets. Put plainly: platelet aggregation in vitro, human platelets. Conditions: Serum % 50, read-out: IC50 (nM) for Test Compounds. The format is cell-based. As to the method: (§1) The compounds of the invention were assayed for their effects on platelet aggregation in vitro. In experiments with human platelets, whole blood was extracted from overnight-fasted human donors. Each experiment was performed with blood from single individual. In experiments with rodent platelets, whole blood was gathered from the heart of female mice or male rats under isofluran (Abbott) anaesthesia. Blood was pooled from two or ten individual rodents for each experiment in the case of rat and mouse experiments, respectively. In all cases, blood was collected into 3.8% sodium citrate tubes (Greiner Bio-one). Platelet-rich plasma (PRP) was obtained by centrifugation at 100×g for 15 min at 25° C. for humans, at 150×g for rats, or at 80×g for 10 min for mice. Platelet-poor plasma was obtained by centrifugation of the remaining blood at 2,400×g for 10 min at 25° C. After counting in an Autocounter (Model 920 EO, Swelab) platelets were diluted when necessary to the desired stock concentrations (200,000-300,000 platelets/μl) using 0.9% NaCl isotonic solution (Braun).
Platelet aggregation was determined by light absorbance using a platelet aggregometer with constant magnetic stirring (Model 490, Chronolog Cop., Havertown, Pa., USA), using a volume of 500 μl per cuvette. During the performance of the experiments, platelet solution was continually agitated by mild horizontal shaking. Collagen (Sigma) and PGE2 or sulprostone (Cayman Chemicals) were used as accelerants of platelet aggregation. Compounds used for this assay were dissolved and stored in a 100% DMSO solution. After dilution, the final DMSO concentration in the assay was lower than 0.1% v/v. […] Acceleration agents and EP3 test compounds were diluted in isotonic solution at the desired concentration. Sigmoidal non-lineal regression was used to calculate the concentration of test compound required to inhibit platelet aggregation by 50% (IC50). IC50 values of test compounds were calculated using GraphPad Prism 3.02 for Windows (GraphPad Software, San Diego Calif. USA). […]

The target of test [2] is T1, prostanoid EP3 receptors (Homo sapiens, UniProt P43115).
T1 sequence (P43115 1-390): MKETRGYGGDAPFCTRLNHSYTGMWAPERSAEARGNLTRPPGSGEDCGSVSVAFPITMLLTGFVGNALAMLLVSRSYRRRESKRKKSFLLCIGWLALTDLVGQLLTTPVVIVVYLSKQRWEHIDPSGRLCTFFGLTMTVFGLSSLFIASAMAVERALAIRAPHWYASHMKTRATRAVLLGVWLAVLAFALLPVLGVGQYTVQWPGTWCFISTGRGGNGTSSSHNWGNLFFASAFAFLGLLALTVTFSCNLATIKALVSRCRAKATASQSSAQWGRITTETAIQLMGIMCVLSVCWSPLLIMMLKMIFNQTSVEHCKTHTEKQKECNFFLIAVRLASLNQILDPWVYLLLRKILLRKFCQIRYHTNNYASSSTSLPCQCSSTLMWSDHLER
Put plainly: binding on prostanoid EP3 receptors (method of Abramovitz et al.). Conditions: read-out: Activity (EP3 receptor binding, IC50 class). As for the experimental part: The compounds of the invention were assayed for their binding on prostanoid EP3 receptors according to the method of Abramovitz et al. [Bioch. Biophys.

The subject of test [3] is female C57BL/6 mice. Kind of test: pulmonary thromboembolism induced by arachidonic acid (platelet aggregation in vivo). More on the design: species or system mouse. Conditions: 100 mg/kg orally, 30 min before arachidonic acid 30 mg/kg i.v.; survival one hour after challenge. As for the experimental part: The compounds of the invention also were assayed for their effects on platelet aggregation in vivo. An in vivo test of platelet activation is the induction of pulmonary thromboembolism by arachidonic acid, a precursor of prostaglandin formation. Inhibitors of prostaglandin synthesis, e.g., a COX-1 inhibitor such as asprin, are protective in the assay. For the pulmonary thromboembolism assay, concious female C57BL/6 mice were dosed orally with the test compounds and 30 min later thromboembolism was induced by injection of arachidonic acid into a tail vein at a dose of 30 mg per kg body weight. Survival was evaluated one hour after the challenge with arachidonic acid, as mice that survive for that length of time usually recovered fully. The arachidonic acid injection was given via a lateral tail vein in a mouse that had been warmed briefly under a heat lamp (dilation of the tail veins using heat facilitates placing the injection). An insulin syringe, 0.5 mL (from Becton Dickinson) was used for dosing. The dose volume given of both the test compound and the arachidonic acid was adjusted to the weight of the mouse (the dose volume p.o. for test compounds and i.v. for arachidonic acid solution was 10 μL and 5 μL per gram body weight, respectively). The survival rate for mice treated with arachidonic acid only was 1 per 10 mice evaluated or 10%. Survival rates for mice treated with test compounds (100 mg/kg, orally) and then arachidonic acid are shown below in Table 4.

Test [4] relates to rat platelets. Put plainly: platelet aggregation in vitro, rat platelets. The format is cell-based. Conditions: Serum % 20, read-out: IC50 (nM) for Test Compounds. As for the experimental part:
as §1
Platelet aggregation was determined by light absorbance using a platelet aggregometer with constant magnetic stirring (Model 490, Chronolog Cop., Havertown, Pa., USA), using a volume of 500 μl per cuvette. […] IC50 values of test compounds were calculated using GraphPad Prism 3.02 for Windows (GraphPad Software, San Diego Calif. USA). […]

In the case of `CC12CCCC(C=CC(=O)NS(=O)(=O)c3cc(Cl)c(Cl)s3)=C1N(Cc1ccc3ccccc3c1)C(=O)C2` (stereo not drawn) [Compound P253], the IC50 in test [1] (agonist Sulprostone (100 nM) and collagen (0.125 ug.mL)) is 15.9 nM; in test [2], < 1 µM.
For the molecule `Cc1cn(Cc2ccc(Cl)cc2Cl)c2c(C=CC(=O)NS(=O)(=O)c3cc(Cl)c(Cl)s3)cc(F)cc12` [Compound P067], the “No. mice surviving/Total no. of mice evalauted” value in test [3] is recorded as 15/22. This molecule showed a Survival rate in test [3] of 68%. The 50% inhibitory concentration (IC50) in test [4] (agonist PGE2 (940 nM) and collagen (2.0 ug.mL)) was 304 nM; in test [4] (agonist Sulprostone (100 nM) and collagen (2.0 ug.mL)), 87.8 nM; in test [1] (Homo sapiens, agonist PGE2 (940 nM) and collagen (0.125 ug.mL)), 5.15 nM; in test [1] (Homo sapiens, agonist Sulprostone (100 nM) and collagen (0.125 ug.mL)), 9.21 nM; in test [2], < 1 µM.
